Consider eight molecules from patent publication US6106872A, “Process for obtaining aroma components and aromas from their precursors of a glycosidic nature, and aroma components and aromas thereby obtained” (Gist-brocades NV, priority 1988, dated 2000).

Each structure is given as a SMILES string. Entries after “also recorded” stand apart in the source; their conditions may differ.

Assay [1] can be described thus: Enzymatic hydrolysis on natural media by commercial enzyme preparations. Type of assay: biochemical, Muscat d'Alexandrie variety grapes. Conditions: Hemicellulase + Naringinase, 25° C., 86 hours. The protocol: The enzymatic hydrolysis of a glycosidic extract incorporated, on the one hand into a natural medium (must or dry wine), and on the other hand into a reference medium (buffer), by the action of commercial preparations containing the requisite three glycosidases, was studied.
A juice and a wine of a vine variety not containing terpenols and terpene glycosides, but enriched beforehand with a known amount of glycosidic extract of muscat, are treated with commercial enzyme preparations. The media, as well as controls, are incubated at 25° C. for 86 hours (see the experimental protocol plan below). They are then passed through a column of Amberlite XAD-2 according to the protocol applied for the production of the glycosidic extract, and the terpenols are assayed by GC.
(4) The glycosidic extract used is obtained by passing a must of Muscat d'Alexandrie variety grapes through Amberlite XAD-2. The amount of glycosidic extract (1 ml) added in the tests corresponds to that found in 50 ml of must of Muscat d'Alexandrie variety grapes.

The nature of assay [2]: Enzymatic hydrolyses on synthetic substrates (TLC, pNP, GC). Type of assay: biochemical. Conditions: from the synthetic glycosides.
Source text: The enzymatic hydrolysis is followed by thin-layer chromatography (TLC) and by gas chromatography (GC).
In all the tests relating to the enzymatic hydrolysis of the synthetic substrates, the same glycosidase activity (0.15 nkat) is used for each of the enzymes (α-arabinosidase, α-rhamnosidase, β-glucosidase).
Assay [3] in a line: Enzymatic hydrolysis of a glycosidic extract (TLC and GC monitoring). The class given is biochemical, Muscat de Frontignan variety grapes. As to conditions: for % of monoglucosides: Table 5, both enzymes together; for Terpene monoglucosides liberated by α-arabinosidase / Terpene monoglucosides liberated by α-rhamnosidase: Table 5, percentage of the total amount liberated by the two enzymes. The protocol:
Thin-layer adsorption chromatography was carried out on pieces of aluminum foil covered with a thin layer (0.2 mm) of silica gel (5553 Silica gel 60 without a fluorescence indicator, Merck). An ethyl acetate/isopropanol/water (65:30:10 v/v/v) mixture was used as a migration solvent.
The sugars and the glycosides are visualized by means of the following mixture, prepared immediately before use: 0.2% napthoresorcinol in ethanol/concentrated sulphuric acid (19:1 v/v). The application of this visualizing agent is followed by drying the plates in the oven (105° C.) for 15 minutes. Apart from their migration distance, the various compounds are also distinguished by their color. The glycosides are purple-red, the arabinosides are bluish, rhamnose greenish pink, arabinose blue and glucose pink.
40 μl of glycosidic extract and 60 μl of a solution of Glc-pNP (internal standard) at a concentration of 50 mg/l in ethyl acetate are introduced into a suitable flask. The mixture is taken to dryness at 40° C. with a stream of nitrogen. 40 μl of the silylating reagent (Tri-sil, Pierce, Rockford, Ill., USA) are then introduced; the flask is sealed and maintained at 40° C. for 20 minutes. After rapid cooling, the silylated sample is then ready for analysis by GC.
The apparatus used consists of a Series 30C gas chromatograph, an "on-column" injector (injected volume 0.5 μl) and a flame ionization detector (Girdel, France). A thin film (0.20 μm) of an OV-1 (girdel) apolar silicone phase is grafted onto the inner wall of the capillary column ([…].). The oven temperature is programmed from 125 to 305° C. at the rate of 5° C./minute, then maintained at 305° C. for 15 minutes. Finally, the detector temperature is set at 300° C. and hydrogen is used as the carrier gas at a pressure of 120 kPa.
The monoterpene alcohols studied here are sufficiently volatile to be chromatographed as they are. To the pentane extract containing them, the internal standard, 4-nonanol (for synthesis, Merck, Darmstadt, FRG) is added in the proportion of 1 μl of a solution at a concentration of 2.89 mg/ml in pentane per 50 μl of medium. The mixture is then dried over sodium sulphate, filtered through glass wool and then concentrated to a volume in the region of 100 μl. For this purpose, the pentane is first removed using a conventional still, and then a Dufton type column of a size suited to the volume remaining to be concentrated.
The constituents of the concentrated extract are separated using a capillary column (25 m×0.32 mm I.D.) containing a CP wax 52 CB (Chrompack, Middelburg, Netherlands) polar phase. The grafted polyethylene glycol film was selected thick (1.28 μm) in order to permit the injection of large sample volumes, up to 4 μl. The analysis is performed using a Fractovap Series 2900 (Carlo Erba, Milan, Italy) chromatograph, equipped with a flame ionization detector maintained at 250° C. and an "on-column" injector. Hydrogen was used as the carrier gas at a pressure of 60 kPa, and the oven temperature was programmed as follows: isothermal at 70° C. for 5 minutes, followed by a rise to 195° C. at the rate of 2° C./minute and a plateau at 195° C. for 15 minutes.
The glycosidic extract was obtained by extraction of a must of Muscat de Frontignan variety grapes collected at maturity in the vines of the Station Experimentale de Pech Rouge (INRA Gruissan, France), followed by removal of the free terpenols and sugars.
The glycoside fraction was taken to dryness under vacuum and then taken up in 18 ml of water. The glycosidic extract used in the chromatographic and enzymatic experiments was thereby obtained.
The experimental protocols for the enzymatic hydrolysis on the glycosidic extract are collated in Table 3. […]

Assay [4] in a line: Sequential enzymatic hydrolysis of HPLC fractions (peaks A and B), GC analysis. Type of assay: biochemical, Muscat de Frontignan variety grapes. The protocol:
The benefits of high performance liquid chromatography were exploited for isolating some terpene glycosides. For this purpose, fractions were collected as they emerged from the chromatographic system (more especially on elution of the peaks A and B) during the separation of the constituents of the glycosidic extract. (FIG. 10 below). Fifteen successive injections of 20 μl each enabled sufficient material to be isolated for the enzymatic hydrolyses and the analyses by GC to be performed in order to identify the compounds in question.
The chromatographic system consists of the following components: a Vista 5500 chromatograph equipped with a variable wavelength UV/visible spectrophotometer (Varian Assoc., Sunnyvale, Calif., USA); a six-way injection valve (Valco) equipped with a 20-μl loop; a stainless steel column (220×4 mm I.D.) filled with Spheri-5 (Brownlee Labs., Santa Clara, Calif., USA) octadecyl grafted silica of small particle size (5 μm); as well as a precolumn (37×4 mm I.D.) packed with the same stationary phase.
The chromatography is carried out using a water/-acetonitrile aqueous-organic mobile phase (reversed-phase polarity chromatography) and an elution graduated according to an increase in the acetonitrile content from 30 to 40% (by volume) in the course of 10 minutes. The elution solvent is pumped at a flow rate of 1 ml/min. The detection is performed at 200 nm and 0.5 absorbance unit full-scale.
Furthermore, each fraction was subjected to the sequential action of α-arabinosidase and then β-glucosidase. At the end of each stage and according to the procedures described, the incubated medium was analysed by GC in order to test for sugars and glucosides on the one hand, and for terpenols on the other hand. Thus, the peaks A and B were identified, respectively, as neryl and geranyl α-L-arabinofuranosyl-β-D-glucopyranosides. The identity of the geranyl glycoside was verified, in addition, by co-injection of the glycosidic extract with the synthetic compound.

`OCc1ccccc1` [Benzyl alcohol, benzyl alcohol]: the “Compounds liberated relative to the reference medium” value in assay [1] (MUST (pH 3.4, sugars 180 g/l)) is 46%; in assay [1] (WINE (dry white, pH 3.1)) it was 50%.
`O=[N+]([O-])c1ccc(O)cc1` [pNP, p-nitrophenol]: in assay [2], the “liberation of the aglycones” value is recorded as “liberated only after the sequential action of both glycosidases”.
In the case of `CC(C)=CCC/C(C)=C\CO[C@@H]1O[C@H](CO)[C@@H](O)[C@H](O)[C@H]1O` [Glc--Ner, neryl β-D-glucopyranoside], in assay [3], the “% of monoglucosides” value is 33%, the “Terpene monoglucosides liberated by α-arabinosidase” value is recorded as 28% and the “Terpene monoglucosides liberated by α-rhamnosidase” value was 5%.
Take `CC(C)=CCC/C(C)=C/CO[C@@H]1O[C@H](CO[C@@H]2O[C@@H](CO)[C@H](O)[C@H]2O)[C@@H](O)[C@H](O)[C@H]1O` (single isomer, unassigned) [Peak B, geranyl α-L-arabinofuranosyl-(1--> 6)-β-D-glucopyranoside]: in assay [4], the “Compounds appearing after action of α-arabinosidase” value was “arabinose; also recorded: Glc--Ger”; the “Compounds appearing after action of α-arabinosidase and then β-glucosidase” value is “glucose; also recorded: geraniol”.
As to `CC(C)=CCC/C(C)=C/CO[C@@H]1O[C@H](CO)[C@@H](O)[C@H](O)[C@H]1O` [Glc--Ger, geranyl β-D-glucopyranoside], in assay [3], the “% of monoglucosides” value is listed as 48%, the “Terpene monoglucosides liberated by α-arabinosidase” value amounted to 39% and the “Terpene monoglucosides liberated by α-rhamnosidase” value is 9%.
Taken in the same sequence, the figures for `C=CC(C)(CCC=C(C)C)O[C@@H]1O[C@H](CO)[C@@H](O)[C@H](O)[C@H]1O` (stereo partly drawn) [Glc--Lin, linalyl β-D-glucopyranoside] were 19%, 10% and 9%.
On to `C=CC(C)(O)CCC=C(C)C` (stereo not drawn) [Linalol, linalool], for which the “Compounds liberated relative to the reference medium” value in assay [1] (MUST (pH 3.4, sugars 180 g/l)) came to 9%; in assay [1] (WINE (dry white, pH 3.1)), 14%.
As for `CC(C)=CCC/C(C)=C\CO[C@@H]1O[C@H](CO[C@@H]2O[C@@H](CO)[C@H](O)[C@H]2O)[C@@H](O)[C@H](O)[C@H]1O` (single isomer, unassigned) [Peak A, neryl α-L-arabinofuranosyl-(1--> 6)-β-D-glucopyranoside], in assay [4], the “Compounds appearing after action of α-arabinosidase” value is listed as “arabinose; also recorded: Glc--Ner”; the “Compounds appearing after action of α-arabinosidase and then β-glucosidase” value was “glucose; also recorded: nerol”.
